Test results taken from patent US4540700A, “Treatment of diabetic complications with certain spiro-imidazolidine-diones” (Alcon Laboratories, Inc., priority 1984, dated 1985).
Where “and” joins values, the source holds several entries; their conditions need not be identical. Equal values may be shown once.

System: cataract formation in galactocemic rats
Test: in vivo dose response by intubation (per oral) in galactocemic rats, cataract (vacuole) formation
Design: species or system Charles River CD (Sprague-Dawley derived) male rats
Description: B. In vivo dose response studies were conducted to test the in vivo activity of the following compounds by intubation (per oral) in galactocemic rats on a 30% galactose diet previously described:
Stock suspensions of the test compounds and all dilutions of the compound were formulated with 0.03% by weight Tween 80.
Healthy, Charles River CD (outbred albino, Sprague-Dawley derived) male rats, aged 20-30 days, without observable ocular defects and ranging in weight from 35-45 grams, were acclimated to experimental conditions (in quarantine) for two days prior to beginning the study.
Rats were individually assigned to one of twenty-three groups according to a random number schedule. Two rats, belonging to the same drug-diet treatment group, were housed per cage. Treatment and control groups consisted of six (6) rats each with no replacement in the event of death, and were designated as follows:
Lenses of all eyes were examined with a hand-held ophthalmoscope in the early stages of cataract development and a penlight for the stages, snowflake-like, snowflake, and nuclear cataract. Lens grading occurred every day for the first ten study days, and then every other day until study Day 14.
The relative potency determination was made at 7 drug levels over half log dose intervals. The response (percent cataracts formed and/or the time to cataract formation) was plotted against mg/kg and/or moles/kg.
The study was directed to the suppression and/or elimination of the initial stages of cataract development characterized by vacuoles or snowflake-likeopacities only. It was assumed therefore that suppression and/or elimination of vacuoles or lens opacification by the test drugs affects the transport, absorption and/or metabolism of galactose in such a manner as to prevent subsequent osmotic disturbances normally leading to tissue degeneration and advanced cataract. Advanced cataract defined as stages 2-4 of the Sipple classification was assumed to be of secondary importance to the etiology of cataract inhibition.
In the event where cataract stage other than vacuole formed, such as snowflake-like opacities, this cataract was counted similarly as vacuole in percent cataract formation.
This study yielded this expected effect in the control groups.
All animals were fed Purina Laboratory Chow and water, ad libitum, for the two day acclimation period. All drugs were dosed orally by intubation using an animal feeding needle (Popper and Sons), 18 or 20 gauge, attached to a 1 or 3 ml syringe. Once the dosing time schedule was established, the schedule was followed throughout the study to compensate for any diurnal variation.
The animals were kept on a twelve hour day/night cycle. The temperature and humidity were determined each day at the scheduled dosing time of 1:00 p.m.
The animals were weighed every other day and adjustments to dosage amounts to compensate for weight gain were made each day prior to the dose time. All food was routinely withheld from all animal groups for four hours (9:00 a.m.) prior to the drug dose and restored two hours (3:00 p.m.) post-dose. Otherwise sufficient amounts of chow or diet mixture were maintained in the food hopper to allow the animals to eat ad libitum. There were two days of drug dosage with the animals remaining on Purina Laboratory Chow (Days 1 and 2). The 30% galactose diet mixture was introduced to the animals two hours post-dose on Day 3 which constituted Day 1 of the study.
All eyes were examined with a hand-held ophthalmoscope and/or penlight at the times designated in the Experimental Design section.
It has been found in previous studies that dilation of the eye with a mydriactic (i.e. Mydriacyl) is not necessary for accurate grading, due to the semi-transparent nature of the rat iris. In the early stages (i.e., grades -, ±, and +) the lens was observed by reflecting the ophthalmoscope beam off the retina back through the lens and iris. Using this technique, vacuoles appear as dark, almost opaque patches. […]

**Q.** What does the source list for `O=C1NC(=O)C2(CCOc3ccc(F)cc32)N1` (racemic) [Sarges Racemic, dl-spiro-(6-fluorochroman-4,4'-imidazolidine)-2',5'-dione, reference compound]?
**A.** Percent of Rat Eyes With at Least Vacuoles Formed (0.126 mg/kg p.o., Day 0): 0%; Percent of Rat Eyes With at Least Vacuoles Formed (0.126 mg/kg p.o., Day 1): 0%; Percent of Rat Eyes With at Least Vacuoles Formed (0.126 mg/kg p.o., Day 2): 0%; Percent of Rat Eyes With at Least Vacuoles Formed (0.126 mg/kg p.o., Day 3): 0%; Percent of Rat Eyes With at Least Vacuoles Formed (0.126 mg/kg p.o., Day 4): 0%; Percent of Rat Eyes With at Least Vacuoles Formed (0.126 mg/kg p.o., Day 5): 0%; Percent of Rat Eyes With at Least Vacuoles Formed (0.126 mg/kg p.o., Day 6): 33%; Percent of Rat Eyes With at Least Vacuoles Formed (0.126 mg/kg p.o., Day 7): 33%; Percent of Rat Eyes With at Least Vacuoles Formed (0.126 mg/kg p.o., Day 8): 50%; Percent of Rat Eyes With at Least Vacuoles Formed (0.126 mg/kg p.o., Day 9): 58%; Percent of Rat Eyes With at Least Vacuoles Formed (0.126 mg/kg p.o., Day 10): 83%; Percent of Rat Eyes With at Least Vacuoles Formed (0.126 mg/kg p.o., Day 12): 83%; Percent of Rat Eyes With at Least Vacuoles Formed (0.126 mg/kg p.o., Day 14): 100%; Percent of Rat Eyes With at Least Vacuoles Formed (0.4 mg/kg p.o., Day 0): 0%; Percent of Rat Eyes With at Least Vacuoles Formed (0.4 mg/kg p.o., Day 1): 0%; Percent of Rat Eyes With at Least Vacuoles Formed (0.4 mg/kg p.o., Day 2): 0%; Percent of Rat Eyes With at Least Vacuoles Formed (0.4 mg/kg p.o., Day 3): 0%; Percent of Rat Eyes With at Least Vacuoles Formed (0.4 mg/kg p.o., Day 4): 0%; Percent of Rat Eyes With at Least Vacuoles Formed (0.4 mg/kg p.o., Day 5): 0%; Percent of Rat Eyes With at Least Vacuoles Formed (0.4 mg/kg p.o., Day 6): 33%; Percent of Rat Eyes With at Least Vacuoles Formed (0.4 mg/kg p.o., Day 7): 33%; Percent of Rat Eyes With at Least Vacuoles Formed (0.4 mg/kg p.o., Day 8): 50%; Percent of Rat Eyes With at Least Vacuoles Formed (0.4 mg/kg p.o., Day 9): 58%; Percent of Rat Eyes With at Least Vacuoles Formed (0.4 mg/kg p.o., Day 10): 83%; Percent of Rat Eyes With at Least Vacuoles Formed (0.4 mg/kg p.o., Day 12): 83%; Percent of Rat Eyes With at Least Vacuoles Formed (0.4 mg/kg p.o., Day 14): 100%; Percent of Rat Eyes With at Least Vacuoles Formed (1.26 mg/kg p.o., Day 0): 0%; Percent of Rat Eyes With at Least Vacuoles Formed (1.26 mg/kg p.o., Day 1): 0%; Percent of Rat Eyes With at Least Vacuoles Formed (1.26 mg/kg p.o., Day 2): 0%; Percent of Rat Eyes With at Least Vacuoles Formed (1.26 mg/kg p.o., Day 3): 0%; Percent of Rat Eyes With at Least Vacuoles Formed (1.26 mg/kg p.o., Day 4): 0%; Percent of Rat Eyes With at Least Vacuoles Formed (1.26 mg/kg p.o., Day 5): 0%; Percent of Rat Eyes With at Least Vacuoles Formed (1.26 mg/kg p.o., Day 6): 0%; Percent of Rat Eyes With at Least Vacuoles Formed (1.26 mg/kg p.o., Day 7): 0%; Percent of Rat Eyes With at Least Vacuoles Formed (1.26 mg/kg p.o., Day 8): 8%; Percent of Rat Eyes With at Least Vacuoles Formed (1.26 mg/kg p.o., Day 9): 17%; Percent of Rat Eyes With at Least Vacuoles Formed (1.26 mg/kg p.o., Day 10): 83%; Percent of Rat Eyes With at Least Vacuoles Formed (1.26 mg/kg p.o., Day 12): 100%; Percent of Rat Eyes With at Least Vacuoles Formed (1.26 mg/kg p.o., Day 14): 100%; Percent of Rat Eyes With at Least Vacuoles Formed (4.0 mg/kg p.o., Day 0): 0%; Percent of Rat Eyes With at Least Vacuoles Formed (4.0 mg/kg p.o., Day 1): 0%; Percent of Rat Eyes With at Least Vacuoles Formed (4.0 mg/kg p.o., Day 2): 0%; Percent of Rat Eyes With at Least Vacuoles Formed (4.0 mg/kg p.o., Day 3): 0%; Percent of Rat Eyes With at Least Vacuoles Formed (4.0 mg/kg p.o., Day 4): 0%; Percent of Rat Eyes With at Least Vacuoles Formed (4.0 mg/kg p.o., Day 5): 0%; Percent of Rat Eyes With at Least Vacuoles Formed (4.0 mg/kg p.o., Day 6): 0%; Percent of Rat Eyes With at Least Vacuoles Formed (4.0 mg/kg p.o., Day 7): 0%; Percent of Rat Eyes With at Least Vacuoles Formed (4.0 mg/kg p.o., Day 8): 0%; Percent of Rat Eyes With at Least Vacuoles Formed (4.0 mg/kg p.o., Day 9): 0%; Percent of Rat Eyes With at Least Vacuoles Formed (4.0 mg/kg p.o., Day 10): 0%; Percent of Rat Eyes With at Least Vacuoles Formed (4.0 mg/kg p.o., Day 12): 17% and 16.7%; Percent of Rat Eyes With at Least Vacuoles Formed (4.0 mg/kg p.o., Day 14): 50%; Percent of Rat Eyes With at Least Vacuoles Formed (12.6 mg/kg p.o., Day 0): 0%; Percent of Rat Eyes With at Least Vacuoles Formed (12.6 mg/kg p.o., Day 1): 0%; Percent of Rat Eyes With at Least Vacuoles Formed (12.6 mg/kg p.o., Day 2): 0%; Percent of Rat Eyes With at Least Vacuoles Formed (12.6 mg/kg p.o., Day 3): 0%; Percent of Rat Eyes With at Least Vacuoles Formed (12.6 mg/kg p.o., Day 4): 0%; Percent of Rat Eyes With at Least Vacuoles Formed (12.6 mg/kg p.o., Day 5): 0%; Percent of Rat Eyes With at Least Vacuoles Formed (12.6 mg/kg p.o., Day 6): 0%; Percent of Rat Eyes With at Least Vacuoles Formed (12.6 mg/kg p.o., Day 7): 0%; Percent of Rat Eyes With at Least Vacuoles Formed (12.6 mg/kg p.o., Day 8): 0%; Percent of Rat Eyes With at Least Vacuoles Formed (12.6 mg/kg p.o., Day 9): 0%; Percent of Rat Eyes With at Least Vacuoles Formed (12.6 mg/kg p.o., Day 10): 0%; Percent of Rat Eyes With at Least Vacuoles Formed (12.6 mg/kg p.o., Day 12): 0%; Percent of Rat Eyes With at Least Vacuoles Formed (12.6 mg/kg p.o., Day 14): 8% and 0.3%; Percent of Rat Eyes With at Least Vacuoles Formed (40 mg/kg p.o., Day 0): 0%; Percent of Rat Eyes With at Least Vacuoles Formed (40 mg/kg p.o., Day 1): 0%; Percent of Rat Eyes With at Least Vacuoles Formed (40 mg/kg p.o., Day 2): 0%; Percent of Rat Eyes With at Least Vacuoles Formed (40 mg/kg p.o., Day 3): 0%; Percent of Rat Eyes With at Least Vacuoles Formed (40 mg/kg p.o., Day 4): 0%; Percent of Rat Eyes With at Least Vacuoles Formed (40 mg/kg p.o., Day 5): 0%; Percent of Rat Eyes With at Least Vacuoles Formed (40 mg/kg p.o., Day 6): 0%; Percent of Rat Eyes With at Least Vacuoles Formed (40 mg/kg p.o., Day 7): 0%; Percent of Rat Eyes With at Least Vacuoles Formed (40 mg/kg p.o., Day 8): 0%; Percent of Rat Eyes With at Least Vacuoles Formed (40 mg/kg p.o., Day 9): 0%; Percent of Rat Eyes With at Least Vacuoles Formed (40 mg/kg p.o., Day 10): 0%; Percent of Rat Eyes With at Least Vacuoles Formed (40 mg/kg p.o., Day 12): 0%; Percent of Rat Eyes With at Least Vacuoles Formed (40 mg/kg p.o., Day 14): 0%
